Where “and” joins values, the source holds several entries; their conditions need not be identical. Equal values may be shown once. Numbers after ± are expanded uncertainties.
Conditions: Crystal

**Q.** What does the source list for `[F-].[F-].[F-].[F-].[Zr+4]` [zirconium(IV) fluoride]?
**A.** vapor or sublimation pressure (685 K): 8.13e-06 ± 2.1e-06 kPa; vapor or sublimation pressure (689 K): 8.13e-06 ± 2.1e-06 kPa; vapor or sublimation pressure (690 K): 1.05e-05 ± 2.7e-06 kPa; vapor or sublimation pressure (693 K): 1.05e-05 ± 2.7e-06 kPa and 1.62e-05 ± 4.1e-06 kPa; vapor or sublimation pressure (698.5 K): 1.62e-05 ± 4.1e-06 kPa; vapor or sublimation pressure (699 K): 1.55e-05 ± 3.9e-06 kPa and 2.4e-05 ± 6.1e-06 kPa; vapor or sublimation pressure (704 K): 1.2e-05 ± 3.1e-06 kPa; vapor or sublimation pressure (705 K): 3.24e-05 ± 8.2e-06 kPa; vapor or sublimation pressure (706.5 K): 2.4e-05 ± 6.1e-06 kPa; vapor or sublimation pressure (707 K): 3.09e-05 ± 7.8e-06 kPa; vapor or sublimation pressure (709 K): 3.09e-05 ± 7.8e-06 kPa; vapor or sublimation pressure (709.5 K): 2.82e-05 ± 7.1e-06 kPa; vapor or sublimation pressure (711 K): 4.9e-05 ± 1.2e-05 kPa; vapor or sublimation pressure (711.5 K): 1.62e-05 ± 4.1e-06 kPa; vapor or sublimation pressure (712.5 K): 2.4e-05 ± 6.1e-06 kPa; vapor or sublimation pressure (713 K): 4.17e-05 ± 1e-05 kPa; vapor or sublimation pressure (713.5 K): 3.24e-05 ± 8.2e-06 kPa; vapor or sublimation pressure (715 K): 2.04e-05 ± 5.2e-06 kPa; vapor or sublimation pressure (717 K): 6.46e-05 ± 1.6e-05 kPa and 2.4e-05 ± 6.1e-06 kPa; vapor or sublimation pressure (719 K): 3.63e-05 ± 9.1e-06 kPa; vapor or sublimation pressure (720 K): 4.9e-05 ± 1.2e-05 kPa and 3.47e-05 ± 8.7e-06 kPa and 2.82e-05 ± 7.1e-06 kPa; vapor or sublimation pressure (720.5 K): 5.25e-05 ± 1.3e-05 kPa; vapor or sublimation pressure (721 K): 3.24e-05 ± 8.2e-06 kPa; vapor or sublimation pressure (723.5 K): 4.9e-05 ± 1.2e-05 kPa; vapor or sublimation pressure (724 K): 6.46e-05 ± 1.6e-05 kPa and 4.68e-05 ± 1.2e-05 kPa; vapor or sublimation pressure (724.5 K): 4.68e-05 ± 1.2e-05 kPa; vapor or sublimation pressure (725.5 K): 4.07e-05 ± 1e-05 kPa and 3.63e-05 ± 9.1e-06 kPa; vapor or sublimation pressure (726.5 K): 4.07e-05 ± 1e-05 kPa; vapor or sublimation pressure (728.5 K): 9.33e-05 ± 2.3e-05 kPa and 0.000112 ± 2.8e-05 kPa; vapor or sublimation pressure (729 K): 6.46e-05 ± 1.6e-05 kPa; vapor or sublimation pressure (729.5 K): 8.91e-05 ± 2.2e-05 kPa; vapor or sublimation pressure (730 K): 8.32e-05 ± 2.1e-05 kPa and 6.92e-05 ± 1.7e-05 kPa; vapor or sublimation pressure (731.5 K): 5.62e-05 ± 1.4e-05 kPa and 4.9e-05 ± 1.2e-05 kPa; vapor or sublimation pressure (732 K): 6.92e-05 ± 1.7e-05 kPa and 5.62e-05 ± 1.4e-05 kPa; vapor or sublimation pressure (734.5 K): 0.000112 ± 2.8e-05 kPa; vapor or sublimation pressure (735 K): 8.91e-05 ± 2.2e-05 kPa; vapor or sublimation pressure (735.5 K): 0.000162 ± 4.1e-05 kPa; vapor or sublimation pressure (736 K): 0.00012 ± 3e-05 kPa and 9.33e-05 ± 2.3e-05 kPa; vapor or sublimation pressure (737 K): 0.000117 ± 2.9e-05 kPa and 8.13e-05 ± 2e-05 kPa and 6.46e-05 ± 1.6e-05 kPa; vapor or sublimation pressure (737.5 K): 0.000145 ± 3.6e-05 kPa and 7.24e-05 ± 1.8e-05 kPa; vapor or sublimation pressure (739.5 K): 0.000135 ± 3.4e-05 kPa; vapor or sublimation pressure (740.5 K): 0.000155 ± 3.9e-05 kPa and 9.33e-05 ± 2.3e-05 kPa; vapor or sublimation pressure (741 K): 0.000112 ± 2.8e-05 kPa; vapor or sublimation pressure (742 K): 0.000219 ± 5.5e-05 kPa; vapor or sublimation pressure (743 K): 0.000141 ± 3.5e-05 kPa and 0.000105 ± 2.6e-05 kPa and 8.91e-05 ± 2.2e-05 kPa; vapor or sublimation pressure (743.5 K): 0.000162 ± 4.1e-05 kPa and 9.77e-05 ± 2.4e-05 kPa; vapor or sublimation pressure (746.5 K): 0.000224 ± 5.6e-05 kPa and 0.000209 ± 5.2e-05 kPa and 0.000204 ± 5.1e-05 kPa; vapor or sublimation pressure (748 K): 0.000162 ± 4.1e-05 kPa; vapor or sublimation pressure (748.5 K): 0.000282 ± 7.1e-05 kPa and 0.00012 ± 3e-05 kPa; vapor or sublimation pressure (749 K): 0.000151 ± 3.8e-05 kPa and 0.000129 ± 3.2e-05 kPa; vapor or sublimation pressure (750 K): 0.000145 ± 3.6e-05 kPa; vapor or sublimation pressure (750.5 K): 0.000209 ± 5.2e-05 kPa; vapor or sublimation pressure (751 K): 0.00024 ± 6e-05 kPa; vapor or sublimation pressure (751.5 K): 0.000251 ± 6.3e-05 kPa; vapor or sublimation pressure (753 K): 0.000209 ± 5.2e-05 kPa and 0.000158 ± 4e-05 kPa; vapor or sublimation pressure (754 K): 0.000324 ± 8.1e-05 kPa and 0.000209 ± 5.2e-05 kPa; vapor or sublimation pressure (754.5 K): 0.000372 ± 9.3e-05 kPa and 0.00017 ± 4.3e-05 kPa; vapor or sublimation pressure (755 K): 0.000178 ± 4.5e-05 kPa; vapor or sublimation pressure (756 K): 0.000288 ± 7.2e-05 kPa and 0.000417 ± 0.0001 kPa and 0.000302 ± 7.6e-05 kPa; vapor or sublimation pressure (756.5 K): 0.000302 ± 7.6e-05 kPa; vapor or sublimation pressure (757 K): 0.000302 ± 7.6e-05 kPa; vapor or sublimation pressure (757.5 K): 0.000251 ± 6.3e-05 kPa; vapor or sublimation pressure (758 K): 0.000195 ± 4.9e-05 kPa; vapor or sublimation pressure (759 K): 0.000257 ± 6.4e-05 kPa; vapor or sublimation pressure (760 K): 0.000234 ± 5.9e-05 kPa and 0.000219 ± 5.5e-05 kPa; vapor or sublimation pressure (760.5 K): 0.000363 ± 9.1e-05 kPa; vapor or sublimation pressure (763 K): 0.000513 ± 0.00013 kPa [middle of 4 runs]; vapor or sublimation pressure (764 K): 0.000234 ± 5.9e-05 kPa; vapor or sublimation pressure (765 K): 0.000347 ± 8.7e-05 kPa; vapor or sublimation pressure (765.5 K): 0.000302 ± 7.6e-05 kPa; vapor or sublimation pressure (766 K): 0.000468 ± 0.00012 kPa [middle of 5 runs]; vapor or sublimation pressure (766.5 K): 0.000457 ± 0.00011 kPa; vapor or sublimation pressure (769 K): 0.000741 ± 0.00018 kPa and 0.000437 ± 0.00011 kPa; vapor or sublimation pressure (770.5 K): 0.000447 ± 0.00011 kPa; vapor or sublimation pressure (771.5 K): 0.000363 ± 9.1e-05 kPa; vapor or sublimation pressure (772 K): 0.000537 ± 0.00013 kPa and 0.000407 ± 0.0001 kPa; vapor or sublimation pressure (773 K): 0.000417 ± 0.0001 kPa; vapor or sublimation pressure (774 K): 0.000891 ± 0.00022 kPa and 0.000427 ± 0.00011 kPa; vapor or sublimation pressure (775 K): 0.000646 ± 0.00016 kPa; vapor or sublimation pressure (777.5 K): 0.000603 ± 0.00015 kPa; vapor or sublimation pressure (778 K): 0.000525 ± 0.00013 kPa and 0.000501 ± 0.00013 kPa; vapor or sublimation pressure (779 K): 0.000724 ± 0.00018 kPa; vapor or sublimation pressure (781 K): 0.00055 ± 0.00014 kPa; vapor or sublimation pressure (783 K): 0.000646 ± 0.00016 kPa; vapor or sublimation pressure (783.5 K): 0.000933 ± 0.00023 kPa; vapor or sublimation pressure (784 K): 0.000813 ± 0.0002 kPa; vapor or sublimation pressure (785 K): 0.000646 ± 0.00016 kPa; vapor or sublimation pressure (786 K): 0.001 ± 0.00025 kPa; vapor or sublimation pressure (788 K): 0.00145 ± 0.00036 kPa; vapor or sublimation pressure (789 K): 0.000813 ± 0.0002 kPa; vapor or sublimation pressure (789.5 K): 0.00102 ± 0.00026 kPa; vapor or sublimation pressure (791 K): 0.000977 ± 0.00024 kPa; vapor or sublimation pressure (792 K): 0.00129 ± 0.00032 kPa; vapor or sublimation pressure (793 K): 0.00129 ± 0.00032 kPa; vapor or sublimation pressure (794 K): 0.00105 ± 0.00026 kPa; vapor or sublimation pressure (798 K): 0.00148 ± 0.00037 kPa and 0.00123 ± 0.00031 kPa and 0.00126 ± 0.00032 kPa; vapor or sublimation pressure (799 K): 0.00234 ± 0.00059 kPa; vapor or sublimation pressure (801 K): 0.00186 ± 0.00047 kPa and 0.0017 ± 0.00043 kPa; vapor or sublimation pressure (802 K): 0.00155 ± 0.00039 kPa; vapor or sublimation pressure (803 K): 0.00166 ± 0.00042 kPa; vapor or sublimation pressure (803.5 K): 0.00186 ± 0.00047 kPa; vapor or sublimation pressure (807 K): 0.00209 ± 0.00052 kPa; vapor or sublimation pressure (808 K): 0.00295 ± 0.00074 kPa; vapor or sublimation pressure (810.5 K): 0.0024 ± 0.0006 kPa; vapor or sublimation pressure (811 K): 0.00275 ± 0.00069 kPa and 0.00209 ± 0.00052 kPa; vapor or sublimation pressure (815 K): 0.00295 ± 0.00074 kPa; vapor or sublimation pressure (818 K): 0.00389 ± 0.00097 kPa; vapor or sublimation pressure (821 K): 0.0038 ± 0.00095 kPa; vapor or sublimation pressure (823 K): 0.00617 ± 0.0015 kPa; vapor or sublimation pressure (828 K): 0.00562 ± 0.0014 kPa

Source: the NIST ThermoML archive (doi:10.1021/je100972k)
